Tests used:
[1] = test system: gastric secretions; assay: anti-gastric secretion activity (Shay, pylorus-ligated rats), total acidity of gastric juice; format: in vivo, rat (male); details: 10 mg/kg, intraduodenally, 3 hours
Protocol: (1) Determination of the anti-gastric secretion activity
The technique used is described by H. SHAY et al. in Gastroenterology, 5, 43, (1945).
Male rats were used weighing about 200 g (10 animals per lot) which had been without food for 48 hours but were allowed an 8% glucose solution ad libitum. After the rats were slightly anesthetized with ether, the pylorus of each was ligated. After the end of the operation, the compound to be tested was administered intraduodenally in different doses, or in the case of the control animals, a 0.5% solution of carboxymethylcellulose was administered intraduodenally, after which the abdominal incision was sutured.
Three hours later, the animals were sacrificed and their stomachs removed, after ligating the esophagus. The gastric juice was removed and centrifuged. The volume of gastric juice was then determined and the total acidity was established by titrating a 100 μl sample of gastric juice to a pH of 7 by means of 1/10 N aqueous sodium hydroxide solution.
The percentages of variation in total acidity between gastric secretions of the test and control animals were calculated, with the results appearing below.

[2] = acute toxicity (LD50); details: mouse, in vivo, po; orally in mice
Protocol: (3) Determination of acute toxicity
The LD50 was evaluated after administration of the products orally in mice.

[3] = test system: stress ulcers in the stomachs of rats; assay: anti-ulcer activity, stress ulcer (stress and cold); format: in vivo, rat (female); details: 10 mg/kg, by esophageal tube
Protocol: (2) Determination of anti-ulcer activity
The technique consists in inducing ulcers in the stomachs of rats by stress (stress and cold). The technique used is described by E. C. SENAY and R. J. LEVINE, Proc. Soc. Exp. Biol., 124, 1221 (1967).
Female rats of 150 g were used (5 animals per lot) which have fasted for 48 hours with water ad libitum and glucose solution for 8 hours. The animals were given the compound being tested, or 0.5% solution of carboxymethylcellulose for the control animals, by esophageal tube. Two hours later the animals were bundled in a jacket of netting. Their paws were tied and the entire unit was placed in a refrigerator at 8° C. for two hours. The rats were released and killed with ether.
Their stomachs were opened along the greater curvature and examined with a binocular magnifier. The seriousness of the lesions was rated from 0 to 3 for each stomach.
For each lot of the rats, the average intensity of the ulcerations was determined. The degree of ulceration for the test animals was determined and compared with the control animals for each lot.

Row | Compound | Anti-secretion activity: Acid conc. (% variation as compared with the controls) [1] [%] | LD50 [2] [mg/kg] | Anti-ulcer activity: Ulceration (% variation as compared with the controls) [3] [%]
1 | COc1cc(C(=O)/C=C/C(=O)O)ccc1O [Example 1, (E) 4-(3-methoxy-4-hydroxyphenyl)-4-oxobuten-2-oic acid] | -90 | 1000 | -89
2 | O=C(O)/C=C/C(=O)c1ccc2c(c1)OCCO2 [Example 2, (E) 4-(2,3-dihydrobenzodioxine-6-yl)-4-oxobuten-2-oic acid] | -41 | 750 | -33
